Results taken from patent publication US6869951B1, “Method of changing conformation of a matrix metalloproteinase” (Pharmacia Corporation, priority 1999, dated 2005).
Where a name gives a salt, the structure may show the parent alone.

Experiments:
[1] = biological target: T1, MMP-8 catalytic domain (residues 85-242) (Homo sapiens, UniProt P22894); assay: X-ray crystallography of MMP-8 catalytic domain inhibitor complexes; settings: X-ray crystal structure of the complex, IX, XI relative to compound XII
T1 construct: The catalytic domain (residues 85-242) of MMP-8, neutrophil collagenase, folds into a compact globular structure; made in house
T1 sequence (P22894 105-262): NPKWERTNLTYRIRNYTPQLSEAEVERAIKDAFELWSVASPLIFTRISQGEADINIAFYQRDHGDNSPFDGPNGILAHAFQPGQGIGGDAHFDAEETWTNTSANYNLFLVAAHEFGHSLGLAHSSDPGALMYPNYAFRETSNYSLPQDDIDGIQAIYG
Text: The MMP-8 catalytic domain was cloned by PCR amplification from a cDNA contruct of full-length MMP-8. The amplified DNA was cloned into NdeI/HindIII restriction sites in an in-house pRec expression vector. Protein was expressed in a bacterial expression system by induction with nalidixic acid. Recombinant protein was expressed primarily as inclusion bodies. Purified protein was recovered in high yield following ion exchange chromatography of denatured protein.
Slow dehydration of the drop leads to formation of single crystals of the inhibitor complex. Details are below.
12 mg/ml MMP-8 in 10 mM MES pH 6.0, 100 mM NaCl, 5 mM CaCl2 pre-incubated with 1 mM inhibitor for 10 minutes at ambient temperature.
4 ul of the protein-inhibitor complex mixed with 6.8 ul 10% PEG6000 and 0.2 M MES pH 6.0
0.8 to 2.5 M sodium/potassium phosphate pH 6.0 (not mixed with protein/inhibitor/PEG drop).
Intensities from crystals of the enzyme inhibitor complexes were measured on a MAR image plate at −140° C. X-rays were generated from a rotating anode generator using a Cu target. The CuKα X-rays were focused onto the samples using long Pt and Ni mirrors.
The data were integrated and scaled using the program DENZO (Otwinowski, Z. and Minor W. in Proceedings of CCP4 Study Weekend: Data Collection and Processing (eds. Sawyer, L., Issacs, N., and Bailey, S.) pp. 56-62 (SERC Daresbury Laboratories, Warrington, UK 1993)).
Standard simulated annealing protocols in the program XPLOR (Brünger, A. T. (1993). XPLOR (Version 3.1): A System for X-ray Crystallography and NMR (Yale University Press, New Haven, Conn.)) were used.
New electron density at the expected active site could in all cases be interpreted with flexible, three-dimensional models of the inhibitors as generated in the program […] (Biosym Technologies (1993). Insight II User Guide, Version 2.2.0. San Diego). Solvent positions were also identified from these electron density maps and side chains of the protein were also sometimes manually adjusted.
Final refinements of the structure were carried out with inclusion of inhibitor and solvent ligands. In the refinements, 10% of the data was set aside for cross validation by evaluation of Rfree (A. T. Brünger, “Free R Value: a novel statistical quantity for accessing the accuracy of crystal structures,” Nature 355, 472-475 (1992)).

[2] = test system: cancer-specific antigens; settings: meta analysis of Phase I/II studies; advanced, treatment-refractory solid tumor cancers (colorectal, pancreatic, ovarian, prostate); cited from earlier work
[3] = clinical trials in cancer patients; cited from earlier work

For `CCCCCc1ccc(C(=O)Nc2ccc(S(=O)(=O)N(CCN3CCOCC3)[C@@H](C(=O)NO)C(C)C)cc2)cc1` [Compound X, R-N-[4-[[[1-(hydroxyamino)carbonyl]-2-methylpropyl][2-(4-morpholinyl)ethyl]amino]-sulfonyl]phenyl]-4-pentylbenzamide, monohydrochloride], the “effect on conformation of the amino acid backbone of the S1' pocket of MMP-8” value (“effect on conformation” below) [1] was “causes the backbone to deform significantly”.

With `CCCCCCc1ccc(C(=O)Nc2ccc(S(=O)(=O)N(CCN3CCOCC3)[C@@H](C(=O)NO)C(C)C)cc2)cc1` [Compound XI, (R)-4-hexyl-N-[4-[[[1-(hydroxyamino)-carbonyl]-2-methylpropyl][2-(4-morpholinyl)ethyl]amino]sulfonyl]-phenylbenzamide, monohydrochloride] the “effect on conformation” value [1] was “causes the backbone to deform significantly”.

With `CC(O)(CS(=O)(=O)c1ccc(Oc2ccccc2)cc1)C(=O)NO` (stereo not shown) [Compound XIV, reference compound] the “effect on conformation” value [1] was “essentially no effect on the conformation of the amino acid backbone”.

For `CCCCCc1ccc(C(=O)Nc2ccc(S(=O)(=O)N(CCN3CCOCC3)[C@@H](C(=O)O)C(C)C)cc2)cc1` [IX, N-[2-(4-morpholinyl)ethyl]-N-[[4-[(4-pentylbenzoyl)amino]phenyl]sulfonyl]-D-valine], the “effect on conformation” value [1] was “causes the backbone to deform significantly”.

For `CCCc1ccc(C(=O)Nc2ccc(S(=O)(=O)N[C@@H](C(=O)O)C(C)C)cc2)cc1` [XII], the “effect on conformation” value [1] was “essentially no effect on the conformation of the amino acid backbone”.

For `CNC(=O)[C@@H](NC(=O)[C@H](CC(C)C)[C@H](O)C(=O)NO)C(C)(C)C` [marimastat], the “effect on rise of cancer-specific antigens used as surrogate markers for biological activity” value [2] is listed as “dose-related reduction in the rise of cancer-specific antigens” and the “most common drug-related toxicity” value [3] is listed as “musculoskeletal pain and stiffness”.
